Results: US10286000B2, “Retinoid X receptor-gamma agonists and retinoid X receptor-alpha antagonists for treatment of cancer” (St. Jude Children's Research Hospital, Inc., priority 2013, dated 2019)

Legend:
Type in all cases: cell-based, human
[1] = tested on: MMP-1, 7, 10, 12, and 13 in CAL27 cells; assay: RT-qPCR of MMP mRNA; conditions: 3 days
Source text: Data were normalized to GAPDH mRNA levels and presented as fold change relative to the mRNA expression in DMSO treated cells (n=3). * P<0.005, ** P<0.001.

[2] = tested on: soluble ULBP2 from HCT116 cells; assay: ULBP2 ELISA (shedding to culture supernatant); conditions: 56 μM, 3 days
Experimental: ULBP2 shed from cell surface to the culture supernatant was detected by ELISA method as described before (Waldhauer & Steinle. 2006. Cancer research 66:2520-2526). 100 μl (triplicate) of cultured supernatant was added into a 96-well plate pre-coated with 1 μg/ml of mouse anti-ULBP2 (BUMO1) and incubated at 4° C. overnight. The plate was washed and then incubated with mouse anti-ULBP2 (IgG2a, 100 μl/well at 1 μg/ml) for 1 h followed by incubation with HRP-conjugated goat anti-mouse IgG2a for 1 h at room temperature. TMB substrate was added and the plate was read using Victor^2 plate reader (Perkin Elmer).

MMP-1 = MMP-1 activity in culture supernatant; conditions: culture supernatant from HT29 and CAL27 cells
[3] = tested on: NKG2DL (MICA-B, ULBP1-3) surface expression; assay: flow cytometry of NKG2DL cell surface expression in cancer cell lines
Experimental: Data are representative of five independent experiments. […] Controls were stained with APC-conjugated anti-human Fc antibody alone without preincubation with NKG2D-Fc. Data are representative of three independent experiments. […] Results are representative of two independent experiments. […] (E) NKG2DL mRNA expression in the colon cancer cell lines was analyzed by qRT-PCR analysis. Data are normalized to GAPDH mRNA levels and are presented as fold-change relative to the expression in DMSO-treated cells (n=5). (F) Lentiviral-based luciferase reporter construct containing the putative ULBP2 promoter (−2415 to 0 bp from the transcription start site: 73 bp upstream of ATG) was transduced into the colon cancer cell lines. Positively transduced cells were selected by puromycin treatment (2 μg/ml) for 2 weeks. […] Data shown are expressed as fold-change relative to the luciferase activity observed in DMSO-treated cells (n=3). * P<0.05, ** P<0.01.
Cell lines were stained with allophycocyanin-conjugated anti-MICA, anti-MICB, or anti-ULBP2 antibodies for 20 min at 4° C. For ULBP1 and ULBP3 staining, cells were first incubated with anti-ULBP1 and anti-ULBP3 antibodies and then with allophycocyanin-conjugated goat anti-mouse IgG antibody. To analyze total NKG2DL cell surface expression, cells were first incubated with human NKG2D-Fc for 20 min at 4° C. and then with allophycocyanin-conjugated mouse anti-human IgG (Fc) antibody. Cells were washed and analyzed on a C6 flow cytometer (Accuri). Data were analyzed using FlowJo software (TreeStar).

[4] = tested on: colon cancer cell lines (NKL or primary NK cells as effectors); assay: NK cell cytotoxicity assay (BATDA release)
Experimental: (A) NKL cells express high level of NKG2D but not NKp30 on their cell surface as determined by flow cytometry. Results are representative of two independent experiments. Therefore, the use of anti-NKp30 in NKL killing assay described in 2 F below was considered as a non-specific IgG blockade relative to anti-NKG2D. […] (D) HCT116 cells transduced with control or a ULBP2-overexpressing lentiviral construct were analyzed by flow cytometry for the surface expression of ULBP2. Results are representative of two independent experiments. (E) NK cell cytotoxicity on the ULBP2-transduced HCT116 cells was determined by a BATDA release assay using NKL cells as effector cells (n=3). (F) DMSO- or SPIR-treated (3 days) HCT116 cells were subjected to a BATDA release assay using NKL cells in the presence or absence of anti-NKp30 or anti-NKG2D antibodies (10 μg/mL) (n=3). (G) DMSO- or SPIR-treated (3 days) HCT116 cells were subjected to a BATDA release assay using IL-2 (10 U/ml)-primed primary NK cells isolated from healthy donors at various E:T ratios in the presence or absence of anti-NKp30 or anti-NKG2D antibodies (10 μg/mL) (n=3). * P<0.05, ** P<0.005, *** P<0.0001.
The results were calculated as follows: […]

[5] = tested on: HCT116, HT29, and CAL27 cells; assay: wound-healing assay; conditions: HCT116, HT29, CAL27
Experimental: The number of cells that invaded the ECM was determined after 24 h. Data are expressed as percentage change in tumor invasion relative to that of DMSO-treated cells (n=3). (D) Wound healing by DMSO- and SPIR-treated HCT116, HT29, and CAL27 cells was compared. Data are calculated as the percentage change in distance of migration relative to that of DMSO-treated cells (n=3). […] Tumor xenografts and lung metastases were detected by bioluminescence imaging on day 25. Data are shown as the average total flux (photons/second)±standard deviation (n=8). (F) The lung metastases (arrows) were confirmed by examining lung tissue sections. * P≤0.05, ** P<0.01, *** P<0.005, **** P<0.0001.
Confluent cell layers of CAL27 and HT29 cells with a 500 μm±50 μm gap were formed by using Ibidi culture inserts (RPI Corp.). Gap distances were measured at various times using a Nikon Eclipse Ti inverted microscope and NIS-Elements software (Nikon).

RXR-gamma = RXR-gamma reporter assay; conditions: HCT116 cells
Experimental: The Cignal RXR reporter assay system containing an RXR-gamma-responsive luciferase construct, which encodes the firefly luciferase reporter gene under the control of a minimal CMV promoter and tandem repeats of the RXR-gamma transcriptional response element, was purchased from Qiagen. The experiment was performed in HCT116 cells according to the manufacturer's instructions.

[6] = tested on: Chk1 (Ser-317 phosphorylation); assay: Phospho-Chk1 ELISA; conditions: HCT116, 0 h to 24 h
Experimental: Ser-317 phosphorylation of Chk1 was determined by using the PathScan phosphor-Chk1 (Ser317) Sandwich ELISA kit (Cell Signaling). Data were normalized to the total Chk1 levels obtained from an ELISA with anti-Chk1 (total) used as the detection antibody.

CC(=O)S[C@@H]1CC2=CC(=O)CC[C@]2(C)[C@H]2CC[C@@]3(C)[C@@H](CC[C@@]34CCC(=O)O4)[C@H]12 [SPIR, spironolactone]
expression of Matrix Metalloproteinases (MMP-1, MMP-7, MMP-10, MMP-12, MMP-13) [1]: downregulates expression
amount of soluble ULBP2 [2]: did not reduce but rather moderately increased
MMP-1 activity (MMP-1): decrease of MMP-1 activity
ULBP2 expression ([3]; HCT116, HT29, SW480, HCT15, SPIR 56 μM, 3 days, dose-dependent): significantly increased
expression of other NK cell ligands (CD112, CD155, Fas, HLAs) ([3]; HCT116 cells, 56 μM, 3 days): no increase in expression
ULBP1 expression ([3]; SW480 and HCT15 cells): selective increase
MICA/B and ULBP3 expression ([3]; all SPIR-treated cells): enhancement
total NKG2DL expression by soluble NKG2D-Fc staining ([3]; colon cancer cell lines): Consistent NKG2DL upregulation
viability of the cells ([3]; colon cancer cell lines, SPIR treatment): without affecting the viability of the cells
susceptibility to primary NK cell-mediated lysis ([4]; HT29 and SW480 cells, IL-2-primed primary NK cells): markedly enhanced
susceptibility to NKL lysis ([4]; all colon cancer cell lines, SPIR 56 μM): significantly increased
cell migration [5]: delayed cell migration
RXR-gamma-responsive luciferase activity (RXR-gamma; 24 h): significantly increased
RXR-gamma protein level (RXR-gamma; Western blot): did not change
Ser-317 phosphorylation of Chk1 (P-Chk1) [6]: time-dependent increase
